Laboratory results: paper PMC6571863, “Bioassay-Guided Isolation of Triterpenoids as α-Glucosidase Inhibitors from Cirsium setosum” (Molecules, 2019)

System: α-Glucosidase enzyme (from Saccharomyces cerevisiae)
Test: α-glucosidase inhibitory assay (p-NPG substrate, spectrophotometric)
Type: biochemical
Conditions: mean SD (n = 3); for Inhibition (%): tested concentration of all samples 100 μM; for IC50: α-glucosidase, p-NPG substrate
Method: A total of 200 μL of reaction mixture, containing 70 μL of 0.1 M phosphate buffer (pH 6.8), 10 μL of 1.0 mg/mL reduced glutathione solution, and 10 μL of the sample solution (test concentration at 0.1 mg/mL), was added to each well of a 96-well plate, followed by the addition of 20 μL of 0.5 U/mL α-glucosidase solution. The plate was incubated at 37 °C for 15 min, and then 20 μL of p-Nitrophenyl α-D-glucopyranoside substrate was added to the mixture to start the reaction. The reaction mixture was incubated at 37 °C for 30 min, and then 70 μL of 0.1 M Na2CO3 solution was added to the mixture to terminate the reaction. All samples were analyzed in triplicate with three different concentrations near the IC50 values. The absorbance (A) was immediately recorded at 400 nm, using a spectrophotometrical method to estimate the enzymatic activity. The inhibition percentage was calculated by the following equation: Inhibitory rate (%) = [1 − (Atest − Ablank)/(control Atest − control Ablank)] × 100%.
Here, Atest represents the absorbance value of the experimental sample, Ablank represents the absorbance value of sample blank, control Atest represents the absorbance value of the control, and control Ablank represents the absorbance value of the blank.

Row | Compound | Inhibition (%) | IC50 [µM]
1 | C[C@H]1O[C@H](O[C@H]2[C@H](O)[C@@H](O)[C@@H](O[C@H]3[C@H](O)[C@@H](O)C(O)O[C@@H]3CO)O[C@@H]2CO)[C@H](O)[C@@H](O)[C@@H]1N[C@H]1C=C(CO)[C@@H](O)[C@H](O)[C@H]1O (some centres unmarked) [Acarbose, acarbose, reference compound] | 78.35 ± 3.41 | –
2 | CC(=O)O[C@H]1CC[C@@]2(C)C(CC[C@]3(C)C2CC[C@@H]2C4[C@H](C)C(C)=CC(=O)[C@]4(C)CC[C@]23C)C1(C)C (stereo partly drawn) [Compound 6, 3β-acetoxy-20-taraxasten-22-one] | 63.06 ± 7.44 | 54.2 ± 2.25
3 | CC1=CC(=O)C2(C)CCC3(C)C(CCC4C5(C)CCC(O)C(C)(C)C5CCC43C)C2C1C (stereo not drawn) [Compound 7, 3β-hydroxy-20-taraxasten-22-one] | 95.59 ± 2.34 | 22.7 ± 0.25
4 | CC1=CC(=O)[C@]2(C)CC[C@]3(C)[C@H](CCC4[C@@]5(C)CCC(=O)C(C)(C)C5CC[C@]43C)C2[C@@H]1C (some centres unmarked) [Compound 5, 20-taraxastene-3,22-dione] | 60.78 ± 5.81 | 68.9 ± 1.82
5 | COC1C=C(C)C(C)C2C3CCC4C5(C)CCC(O)C(C)(C)C5CCC4(C)C3(C)CCC12C (stereo not drawn) [Compound 2, 3β-hydroxy-22α-methoxy-20-taraxastene] | 93.29 ± 0.74 | 27 ± 0.89

Continued, values first:

Row | Inhibition (%) | IC50 [µM] | Compound
6 | 94.95 ± 1.67 | 17.5 ± 1.42 | CC1=CC(O)C2(C)CCC3(C)C(CCC4C5(C)CCC(O)C(C)(C)C5CCC43C)C2C1C (stereo not drawn) [Compound 4, 3β,22α-dihydroxy-20-taraxastene]
7 | 99.46 ± 1.04 | 18.3 ± 1.27 | CC1C(COO)=CCC2(C)CCC3(C)C(CCC4C5(C)CCC(O)C(C)(C)C5CCC43C)C12 (stereo not drawn) [Compound 1, 3β-hydroxy-30-hydroperoxy-20-taraxastene]
8 | 59.19 ± 3.81 | 80.1 ± 2.13 | C[C@@H]1C=CC[C@]2(C)CC[C@]3(C)[C@H](CCC4[C@@]5(C)CC[C@H](O)C(C)(C)C5CC[C@]43C)C12 (stereo partly drawn) [Compound 8, 30-nor-3β-hydroxy-20-taraxastene]
9 | 70.34 ± 2.73 | 44.6 ± 1.39 | C[C@@H]1C=C[C@H](O)[C@]2(C)CC[C@]3(C)[C@H](CCC4[C@@]5(C)CC[C@H](O)C(C)(C)C5CC[C@]43C)C12 (stereo partly drawn) [Compound 3, 30-nor-3β,22α-dihydroxy-20-taraxastene]
